According to patent publication US20080161398A1, “STIMULATION OF IN VIVO PRODUCTION OF PROTEINS” (Nutricia N.V., priority 2002, published 2008):

System: mixed muscle protein synthesis
Test: Fractional synthetic rate of mixed muscle protein synthesis in anaesthetized rats after intravenous infusion of amino acid compositions
Type: in vivo
Experimental: Four groups of anaesthetized rats were given an amino acid composition. The same total amount of amino acids was given to each group by intravenous infusion. A fifth group was added to the study as a control group. The first group was given a balanced mixture of amino acids, commercially available under the trade name Travasol. This mixture contains less than 5% leucine. The second group was given 75% of Travasol and 25% of leucine. The third group was given 65% of Travasol and 35% of leucine, and the fourth group was given only leucine. The in fractional synthetic rate of mixed muscle protein synthesis (FSR (%/h)) was measured as described by Ferrando et al., Am. J. Physiol., 275:E864-E871, 1998, the contents of which are incorporated herein by reference.

With `CC(C)C[C@H](N)C(=O)O` [Leucine alone, leucine] as the molecule, how does the “response in protein production” value (administration of L-leucine alone, as shown in the appended examples) read?
The value was “does not induce the desired response in protein production”.

What about the “FSR (%/h), fractional synthetic rate of mixed muscle protein synthesis” value (anaesthetized rats, intravenous infusion, same total amount of amino acids given to each group) of the same molecule?
Its value is 0.0767 ± 0.0204 %/h.
